“Also recorded” adds a separate entry of the source. Like-named read-outs stand apart in the source and are kept apart here.
Legend:
[1] = tested on: mitochondrial reactive oxygen species (mito-ROS); assay: Mitochondrial reactive oxygen species (MitoSOX Red) and ROS content in Calu3 cells; details: 1000 nM Mito-MES; methanesulfonate
Method: Flow cytometry was used to determine the cellular content of Calu3 cells for mitochondrial reactive oxygen species (mito-ROS) based on the median fluorescence intensity (MFI) of the fluorochrome MitoSOX Red and was compared to a negative cell population (fluorescence minus one negative control for staining) (ΔMFI). Flow cytometry was used to determine the percent of SARS-CoV-2 infected Calu3 cells positive for MitoSOX Red. Calu3 and Vero cells were treated with DMSO vehicle control (Ctrl) or the mitochondrial antioxidants MitoTEMPO (25-1000 nM) (72 h) or Mito-MES (25-1000 nM) (72 h) and were infected with a fluorescent mNeonGreen SARS-CoV-2 (icSARS-CoV-2-mNG) (MOI 0.3) (48 h). Immunofluorescent analysis of viral replication and cellular oxidative stress was performed at 48 hpi. […] Viral replication was determined by TCID50-assay (FIG. 3-d), cell cytotoxicity was assessed by the XTT assay in uninfected cells treated with dTPP (0.01-10 μM) (72 h) (FIG. 3-e). […]
After 24 h (or 48 h, experiments involving 4F) post-infection, cells were collected and stained with 5 μM MitoSOX Red Mitochondrial reactive oxygen species (mito-ROS) indicator for 30 min at 37° C. […] Cells were then analyzed using an LSR Fortessa flow cytometer and FACSDiva software (Becton & Dickinson, San Diego, Calif., USA), and data were analyzed using FlowJo software.

MAVS, TOM70, STING, MX1 = assay: MAVS, TOM70, STING and MX1 protein levels in Calu3 cells, flow cytometry and immunofluorescence; format: cell-based, human
[2] = cited from earlier work
icSARS-CoV-2-mNG = format: cell-based, SARS-CoV-2
[3] = tested on: murine coronavirus hepatitis virus A-59 (MHV-A59); assay: Mouse hepatitis virus A-59 in 17Cl-1 fibroblast cells; format: cell-based; details: mouse 17C1-1 fibroblast cells, 1000 nM
Nrf2, Keap1, HO-1 = assay: Nrf2, Keap1 and HO-1 protein levels in Calu3 cells, flow cytometry; format: cell-based, human; details: infected and uninfected Calu3
IL-6, IL-10 = format: cell-based, human
SARS-CoV-2 [4] = assay: microbe, parasite or virus in culture; format: cell-based
SARS-CoV-2 [5] = format: cell-based
SARS-CoV-2 [6] = assay: SARS-CoV-2 replication in HEK293T-hACE2 cells, flow cytometry; format: cell-based; details: 100 nM Mito-MES; methanesulfonate
[7] = tested on: IL-6, IL-1β, IL-8, IL-10, TNF-α; format: cell-based, human
[8] = tested on: ACE2, CD147, NRP1 and TMPRSS2; assay: Host entry factor protein levels in Calu3 cells, flow cytometry; format: cell-based, human; details: methanesulfonate
cleaved caspase 3 = format: cell-based, African green monkey; details: Vero, methanesulfonate

COC1=C(OC)C(=O)C(CCCCCCCCCC[P+](c2ccccc2)(c2ccccc2)c2ccccc2)=C(C)C1=O.CS(=O)(=O)[O-] [Mito-MES, 10-(4,5-dimethoxy-2-methyl-3,6-dioxo-1,4-cyclohexadienyl) decyl triphenylphosphonium methanesulfonate]
ROS content of Calu3 cells [1]: increased the ROS content of Calu3 cells
MX1 protein levels (MAVS, TOM70, STING, MX1; Calu3, flow cytometry, 4F 10 μM): increased MX1 protein levels
STING protein levels (MAVS, TOM70, STING, MX1; infected Calu3, flow cytometry, methanesulfonate): did not impact stimulator of interferon genes (STING)
TOM70 protein levels, immunofluorescence (MAVS, TOM70, STING, MX1; infected Calu3 vs vehicle, methanesulfonate): confirmed by immunofluorescence; also recorded: dose-dependent increase in TOM70 protein levels
MAVS protein levels (MAVS, TOM70, STING, MX1; total and infected Calu3, flow cytometry, methanesulfonate): no impact; also recorded: did not modulate MAVS protein levels
TOM70 protein levels, flow cytometry (MAVS, TOM70, STING, MX1; total and infected Calu3, methanesulfonate): increased the translocase of the outer membrane 70 (TOM70) protein levels
average elevation of fasting plasma concentrations ([2]; 40-80 mg/day, after about 10 days): about 5 ng/mL
plasma concentration after 24 h ([2]; humans, single 40 mg oral dose): about 2 ng/ml
maximal plasma concentration ([2]; humans, single 80 mg oral dose): 33 ng/mL
time of maximal plasma concentration ([2]; humans, single 80 mg oral dose): about 1 h
antiviral activity against fluorescent SARS-CoV-2 (icSARS-CoV-2-mNG): potent and similar antiviral activity
anti-MHV-A59 activity [3]: anti-MHV-A59 activity
protein levels of Nrf2 (Nrf2, Keap1, HO-1): did not impact protein levels of Nrf2
protein levels of Keap (Keap1) (Nrf2, Keap1, HO-1; methanesulfonate): reduced protein levels of the endogenous Nrf2 inhibitor, Keap1; also recorded: reduced protein levels of Keap
secretion / release of IL-6 (IL-6, IL-10): attenuated SARS-CoV-2-induced increase in secretion of IL-6
secretion of IL-10 (IL-6, IL-10): reduced secretion of IL-10
reduction of release of progeny virus, TCID50 analysis of cell supernatants (SARS-CoV-2 [4]; Calu3, 100 nM and 1000 nM Mito-MES): > 2 logs
nucleocapsid protein expression, time-of-addition (SARS-CoV-2 [4]; Calu3, 1000 nM Mito-MES): inhibited nucleocapsid protein expression in Calu3 cells when added before infection (effect on viral entry) but also even when added 4 hours after infection
antiviral activity by immunofluorescence and PCR (SARS-CoV-2 [4]; Calu3, 10-1000 nM, methanesulfonate): much more potent in Calu3 cells compared to Vero E6 cells; also recorded: potent antiviral activity against SARS-CoV-2 in Calu3 cells at concentrations as low as 10 nM
Viral replication by flow cytometry at 48 hpi in Calu3 cells (SARS-CoV-2 [4]; DMF 10 μM, Mito-MES 100 nM, Mito-MES 100 nM+DMF 10 μM, […]): 2.4%
Viral replication by flow cytometry at 48 hpi in Calu3 cells (SARS-CoV-2 [4]; Mito-MES 1000 nM, Brusatol 250 nM, Mito-MES 1000 nM+Brusatol 250 nM): 2.9%
IC50 (SARS-CoV-2 [4]; Severe acute respiratory syndrome coronavirus 2, Calu-3, 48 h, read-out: IC50 (FIG. 1-i)): 20 nM
IC50 (SARS-CoV-2 [4]; Severe acute respiratory syndrome coronavirus 2, Calu-3, 72 h, read-out: IC50, % inhibition of viral replication (FIG. 5-c)): 30 nM
viral titers of infected cells vs vehicle control, TCID50-assay (SARS-CoV-2 [4]; […], 10 nM Mito-MES, 10 μM DMF, 100 nM 4F, alone or combined as labelled): reduced viral titers
lowest concentration that resulted in an observable antiviral effect (SARS-CoV-2 [4]; human lung epithelial cells): 10 nM
release of progeny SARS-CoV-2 virus particles to the cell supernatant, TCID50 assay (SARS-CoV-2 [5]): reduction in subsequent release of progeny SARS-CoV-2 virus particles
IC50 against SARS-CoV-2 compared to remdesivir, TCID50 assay (SARS-CoV-2 [5]; Vero E6): three orders of magnitude lower
percent of cells positive for SARS-CoV-2 N and Spike S proteins, flow cytometry (SARS-CoV-2 [5]; Vero cells, methanesulfonate): reduced the percent of cells that were positive for SARS-CoV-2 N and Spike S proteins; also recorded: reduced the percent of infected cells that were positive for N protein
antiviral activity by immunofluorescence and qPCR (SARS-CoV-2 [5]; methanesulfonate): confirmed by immunofluorescence (IF) detection of SARS-CoV-2 and by qPCR; also recorded: modest antiviral activity
percent of SARS-CoV-2 infected HEK293T-hACE2 cells, flow cytometry (SARS-CoV-2 [6]): significantly reduced the percent of SARS-CoV-2 infected human non-cancerous HEK293T epithelial cells
secretion of IL-10, Luminex [7]: tended (p=0.09) to reduce the secretion of IL-10
protein levels of ACE2, TMPRSS2, NRP1 and CD147 [8]: did not impact; also recorded: Neither SARS-CoV-2 infection nor Mito-MES significantly modulates protein levels
SARS-CoV-2-induced cleavage of caspase 3, immunofluorescence (cleaved caspase 3; Mito-MES 10-1000 nM): reduced SARS-CoV-2-induced increase in cleavage of caspase 3; also recorded: reduced by Mito-MES treatment
percent of infected cells positive for cleaved caspase 3 and MFI of cleaved caspase 3 per cell, flow cytometry (cleaved caspase 3; Mito-MES 100 nM, 4F 10 μM): attenuated SARS-CoV-2-induced increase; also recorded: inhibits or reduces SARS-CoV-2-induced increase

Reference: patent US20220273678A1 (priority 2020, published 2022)
